Earlier results as cited in patent publication US20230201369A1 (THE TEXAS A&M UNIVERSITY SYSTEM, priority 2020, published 2023).

Conditions: estimated

C=CCN1CC[C@]23c4c5ccc(O)c4O[C@H]2C(=O)CC[C@@]3(O)[C@H]1C5 [naloxone, 17-Allyl-4,5α-epoxy-3,14-dihydroxymorphinan-6-one]
oral bioavailability: 0.9-2%
